Measured values as given in patent US12042530B2, “Target peptides for immunotherapy and diagnostics” (University of Virginia Patent Foundation, priority 2012, dated 2024).
Read-outs that look alike come from different tables or passages of the source. Non-standard residues stand in square brackets, D forms with d. No end group written: not given here. pS = N[C@@H](COP(=O)(O)O)C(=O)O

How the values were obtained:
melanoma cells = experiment: T cell recognition of GSK-3β- and proteasome-inhibited melanoma cells; format: cell-based, human; conditions: DM331 and SLM2, re-expression of peptide-MHC in presence of inhibitor (5 μM)
Method: Surface peptide-MHC complexes were denatured from the cells using a mild acid buffer as previously described (Robila et al., 2008) and then allowed to re-express peptide-MHC molecules in the presence of BIO, MeBIO, or 5 μM lactacystin for 12 hours. T cell recognition of the cells was evaluated after 5 hours incubation with pS33-βcat-specific T cells.

phosphoS33-β-catenin = experiment: Western blot of phosphoS33-β-catenin and β-catenin; format: cell-based, human; conditions: BIO in the presence of lactacystin
Method: Lysates were prepared from ˜80% confluent cells in buffer containing 2% Triton X 100 and protease and phosphatase inhibitors. Samples were separated on 8% SDS-PAGE (Thermo Fischer Scientific Inc., Waltham, Massachusetts, United States of America) and transferred to PVDF membranes (Millipore Immobilon-FL, 0.45 μm; Millipore Corporation, Billerica, Massachusetts, United States of America). Blots were probed with phosphoS33-β-catenin, β-catenin, and GAPDH antibodies overnight at 4° C. and developed by enhanced chemiluminescence (Millipore). Films were scanned and integrated density values determined using AlphaEase software and normalized to values obtained for GAPDH. In some cases, GSK-3 activity was inhibited using 5 μg BIO ((2′Z, 3′E)-6-Bromoindirubin-3′-oxime) and proteasomal degradation was blocked with 10 μg lactacystin (Calbiochem) before cells were lysed.

PBMCs [1] = experiment: 7-day recall ELISpot, AML patients, before and after stem cell transplantation; format: cell-based, human
Method: To develop a more complete understanding of phosphoantigen-directed T cell immunity in patients with leukemia, these studies were extended into AML using a panel of 14 AML-specific phosphopeptide antigens. A cohort of 12 patients in complete remission (CR) with AML (see Table 24) were assessed using 7-day recall responses, as measured by ELISpot, and compared against a cohort of 12 healthy donors (see FIGS. 14A and 16).
To test this hypothesis, all 12 AML patients underwent allogeneic SCT and immune reconstitution against 14 AML-specific phosphopeptide antigens was monitored. […] For some patients, immune reconstitution was studied in more detail. For patient AML8 marked expansions of 6 different phosphopeptide immune responses were observed (see FIG. 14E).
For ELISpot analysis, PBMCs and CD8^+ T cells were isolated fresh from healthy donors and patients. 1×10^6 PBMCs were isolated from both AML patients and healthy donors and resuspended in AIM-V media (10% human AB serum) in a 96 well plate. Peptide or phosphopeptides were added individually at 10 μg/ml and placed at 37° C. in CO2 incubator for 7 days. Cells were then harvested, washed 4 times, and re-challenged with phosphopeptides, peptides, or anti-CD3 (OKT3, 100 ng/ml, Mabtech, Inc., Mariemont, Ohio, United States of America) as per the manufacturer's instructions. […]

PBMCs [2] = experiment: Memory T cell response, IFNγ ELISpot, healthy A2 positive donors; format: cell-based, human; conditions: for Day 7 ELISpot, donor alpha: healthy A2 positive donor alpha; for Day 7 ELISpot, donor one: healthy A2 positive donor one
cancer cell lines = experiment: Recognition of naturally processed phosphopeptides on cancer cell lines by phosphopeptide-specific CTL (murine IFNγ); format: cell-based, human; conditions: ovarian, melanoma and breast cancer lines versus JY EBV-BLCL control
Method: FIGS. 9A and 9B are bar graphs of the recognition of naturally processed and presented phosphorylated peptides on cancer cells by the phosphopeptide-specific CTL. Phosphopeptide-specific CTL were incubated with the following cancer cell lines or EBV-transformed B lymphoblastoid cell lines (BLCL): COV413.AAD.A4 ovarian carcinoma, DM331.AAD.A4 and SLM2.AAD.A1 melanomas, MCF7.AAD.A2 and MDAMB231.AAD breast carcinomas, and JY EBV-BLCL. Supernatants were harvested and evaluated for the presence of murine IFNγ (produced by murine CTL lines). […] The designation “pS” denotes a phosphoserine residue. The ordinate indicates murine IFNγ in pg/ml. The abscissa indicates each cell line.

CD8+ T cells = experiment: ELISpot T cell recognition assay, healthy donors, leukemia-associated phosphopeptides; format: cell-based, human; conditions: 10 HLA-A2+ and 10 HLA-B7+ healthy individuals, 7 day cultures
Method: Immunity against 76 HLA-B7 and 10 HLA-A2 leukemia-associated phosphopeptide antigens was assessed in 10 HLA-A2^+ and 10 HLA-B7^+ healthy individuals (see FIG. 12A).
For ELISpot analysis, PBMCs and CD8^+ T cells were isolated fresh from healthy donors and patients. 1×10^6 PBMCs were isolated from both AML patients and healthy donors and resuspended in AIM-V media (10% human AB serum) in a 96 well plate. Peptide or phosphopeptides were added individually at 10 μg/ml and placed at 37° C. in CO2 incubator for 7 days. Cells were then harvested, washed 4 times, and re-challenged with phosphopeptides, peptides, or anti-CD3 (OKT3, 100 ng/ml, Mabtech, Inc., Mariemont, Ohio, United States of America) as per the manufacturer's instructions. Individual cytokine-producing cells were identified as dark spots after a 15 minute reaction with 5-bromo-4-chloro-3-indolyl phosphate and NBT by means of an alkaline phosphatase conjugate substrate (Mabtech).

[3] = tested on: RQA(pS)IELPSMAV-specific T cells; experiment: Recognition of peptide-loaded targets by RQA(pS)[…]-specific T cells (IFNγ); format: cell-based, human
Description: Three of the HLA-A2 and two HLA-B7 phosphopeptides were derived from LSP-1, a protein previously identified as a potential tumor marker. One of these, RQA(pS)[…] (SEQ ID NO: 452), was selected for initial immunological studies due to its widespread expression on all HLA-A2^+ tumor samples analyzed and also because it was present on tumor samples at high copy number. Monocyte-derived dendritic cells were generated from healthy donors and used to prime autologous T cells and HLA-phosphopeptide tetramers were used to enrich phosphopeptide-specific T cells, between each stimulation steps, to produce a monospecific T cell line (see FIG. 11A). […] Recognition was, therefore, phosphate-dependent and phosphopeptide-specific.
HLA-A2 restricted RQA-V (SEQ ID NO: 2375) phosphopeptide-specific cytotoxic CD8^+ T cells were generated from healthy donors as described previously in Ho et al., 2006. Briefly, PBMCs were cultured in flat-bottom 6-well plates at 10^7 cells per well in RPMI 1640 plus 10% heat-inactivated human AB serum (10% media). GM-CSF (800 IU/mL), and IL-4 (1000 units/mL; PeproTech) were added on day 0 to generate dendritic cells (DC). On day 1, a maturation cocktail was added containing 100 ng/ml TNFα, 100 ng/ml IL-1β, 10,000 IU/ml IL-6, 8,000 IU/ml GM-CSF, and 10 μg/ml PGE2. […]

HLA A*0201 = HLA A*0201 (Homo sapiens, UniProt P04439, D140Y/D185E/D98H/E176V/E277Q/G131W/G231S/I119V/I121R/I166T/I218V/L300P/L318F/N151K/N90K/P208A/P217A/Q86G/Q94H/R138H/R169H/T345S); experiment: Binding to HLA A*0201 (statement)
HLA A*0301 = HLA A*0301 (Homo sapiens, UniProt P04439); experiment: Binding to HLA A*0301 (statement)

CC(=O)NC(CSC(=O)C1(C(O)C(C)C)NC(=O)C(C)C1O)C(=O)O (stereo not shown) [lactacystin, 2-(acetylamino)-3-[({3-hydroxy-2-[1-hydroxy-2-methylpropyl]-4-methyl-5-oxopyrrolidin-2-yl}carbonyl)sulfanyl]propanoic acid]
pS33-βcat-specific T cell recognition of melanoma cells (melanoma cells): abolished
Amount of phosphoS33-β-catenin in melanoma cells (phosphoS33-β-catenin): substantial increase

EPRsPSHSM (EPR[pS]PSHSM; listed as Homo sapiens) [SEQ ID NO: 270]
Immune reconstitution after allogeneic stem cell transplantation (PBMCs [1]): dramatic expansion

GLLGpSPVRA (GLLG[pS]PVRA; listed as Homo sapiens) [SEQ ID NO: 396]
Day 7 ELISpot, donor alpha (PBMCs [2]): + (3-24 spots)
Day 7 ELISpot, donor one (PBMCs [2]): + (3-24 spots)
Recognition of the endogenous phosphopeptide by specific CTL lines (cancer cell lines): recognized the phosphopeptide on all the cancer cell lines but not the control cell line

QPRtPSPLVL [SEQ ID NO: 304]
Immune response in healthy donors, in words (CD8+ T cells): some of the strongest responses
Immune reconstitution after allogeneic stem cell transplantation (PBMCs [1]): dramatic expansion

RQA(pS)IELPSMAV (RQA[pS]IELPSMAV; listed as Homo sapiens) [SEQ ID NO: 452]
Immune response in healthy donors, in words (CD8+ T cells): some of the strongest responses
IFNγ production by RQA(pS)IELPSMAV-specific T cells in response to the peptide [3]: produced IFNγ

RQASIELPSMAV [reference compound]
IFNγ production by RQA(pS)IELPSMAV-specific T cells in response to the peptide [3]: not to the unphosphorylated RQASIELPSMAV

RVApSPTSGV (RVA[pS]PTSGV; listed as Homo sapiens) [SEQ ID NO: 418]
Day 7 ELISpot, donor alpha (PBMCs [2]): ++ (25-99 spots)
Day 7 ELISpot, donor one (PBMCs [2]): ++ (25-99 spots)
Memory T cell response, in words (PBMCs [2]; healthy donors / patient): None of the HD recognized or responded to it
Recognition of the endogenous phosphopeptide by specific CTL lines (cancer cell lines): recognized the phosphopeptide on all the cancer cell lines but not the control cell line
Binding to HLA A*0201 (HLA A*0201): binds to HLA A*0201
Binding to HLA A*0201 (HLA A*0201; listed as RVA): did not bind to A*0201
Binding to / presentation by HLA A*0301 (HLA A*0301): cannot be presented by the A*0301 molecule
Binding to / presentation by HLA A*0301 (HLA A*0301; listed as RVA): binds to A*0301
